The subject of data set [1] is multiple myeloma cells U266. Briefly: MTT test, cell viability of U266 cells. The settings on record: Homo sapiens, U-266; 10^−4M; serum-free medium; FIG. 2A; read-out: Cell killing / reduction of viability of U266 cells. The class given is cell-based, human. As for the experimental part:
(§1) The MTT test is a standard assay addressing cell toxicity of a compound. It is based on the principle that after 3-4 hours of cell incubation with MTT (3-(4,5-dimethylthiazole-2-yl)-2,5-diphenyl tetrazolium bromide) so-called purple formazan crystals develop in living and early apoptotic cells. Dead cells don't produce formazan crystals.
(§2) Different cell lines were tested. Unless indicated differently, A549 human lung epithelial cells (derived from lung carcinoma) and L929sA murine fibroblast cells were cultured in DMEM with 10% FCS, 100 U/ml penicillin and 100 μg/ml streptomycin. Unless indicated differently, the human multiple myeloma cell lines L363, U266 and MM1.S were cultured in RPMI 1640 with Glutamax-I, supplemented with 10% FCS, 100 U/ml penicillin and 100 μg/ml streptomycin. Cells were seeded at 5000 cells/well (for adherent A549 and L929sA cells) or at 10000 cells/well (for the multiple myeloma lines in suspension) in 96 well plates. Cells were incubated in the presence of the respective synephrine compounds or vehicle (EtOH; for control test) in a final volume of 0.2 ml for 24 or 48 hours at 37° C. Subsequently, 20 μl of MTT solution (5 mg/ml in phosphate-buffered saline) was added to each well. After 4 hours incubation at 37° C., 80 μl of the extraction buffer (10% SDS, 0.01 M HCl) was added. After overnight incubation at room temperature, the optical densities at 590 nm were measured. Results are illustrated in FIGS. 2 to 6 and are expressed as percentage of viable cells as compared to vehicle-treated controls.
(§3) The MTT test was further extended to include alternative synephrine derivatives and a range of multiple myeloma cell lines for which the results are illustrated by FIGS. 3A, 3B and 4A. Human multiple myeloma cell lines L363, U266 and MM1.S were cultured in RPMI 1640 with Glutamax-I, supplemented with 10% FCS, 100 U/ml penicillin and 100 μg/ml streptomycin. Cells were seeded at 10000 cells/well in 96 well plates. Cells were incubated in the presence of test compounds or vehicle in a final volume of 0.2 ml for 24 or 48 hours at 37° C. The test compounds included in the test were the synephrine derivatives CpdA, Naphth, Benz and Isobut, and DEX as a comparative example. Subsequently, 20 μl of MTT solution (5 mg/ml in phosphate-buffered saline) was added to each well. After 4 hours incubation at 37° C., 80 μl of the extraction buffer (10% SDS, 0.01 M HCl) was added. After 48 hours incubation at room temperature, the optical densities at 590 nm were measured. Results are expressed as percentage of viable cells as compared to vehicle-treated controls.
For orientation: Formazan colour is commonly taken as a measure of viable cells.

The test system of data set [2] is MM1.S cell line. Briefly: MTT test, cell viability of MM1.S cells. The class given is cell-based, human. To be noted: Homo sapiens, MM1.S; 10^−4 M; 10% FCS; FIG. 4A; read-out: Inhibition of MM1.S cell viability. As for the experimental part: as §1, §2, §3
Data set [3] is described as follows: MTT test, cell viability of L929sA fibroblasts. The class given is cell-based, murine. To be noted: mouse, L929sA fibroblast cells; 10^−4 M; 48 hours; FIG. 5B; read-out: Block of L929sA cell viability. On the procedure:
as §1, §2
In a further MTT test, the activity of the synephrine derivatives on the inhibition of cell viability of non-immune cells was measured. […] Tests were performed for 24 hours and for 48 hours. The results are illustrated by FIGS. 5A and 5B for L929 cells, and by FIGS. 6A and 6B for A549 cells. It was observed that CpdA at 10^−5 M blocked cell viability of L929sA and A549 for not more than 10%.

The test system of data set [4] is MCF7 breast cancer cells. The settings on record: 10^−6 M. On the procedure:
In further experiments, nylon arrayfilter hybridization experiments were performed. cDNA array analyses were carried out according to the instructions of the manufacturer (SuperArray Simplicity GEArray™ KIT) on the cDNA arrays cancer pathway finder and stress and toxicity array. Total RNA, obtained by the protocol as described herein above, was used as a template for [α−^33P]-cDNA probe synthesis using the following steps:
A second array hybridization experiment was performed on Human Stress and Toxicity Pathway Finder GEarray Q series. The same protocol was followed as for the array hybridization experiment on the Human Cancer Pathway Finder described herein above.

For data set [5], the system named is B16BL6 melanoma, PG19 melanoma and Lewis Lung Carcinoma. Briefly: In vivo melanoma model, subcutaneous tumors in mice. To be noted: eight days of treatment with 200 μg; PBS-treated 1.51+/−0.13 g. On the procedure:
In vivo melanoma model • Cells of B16BL6 melanoma, PG19 melanoma and Lewis Lung Carcinoma are kept in culture in DMEM supplemented with fetal calf serum, antibiotics and L-glutamine. Cells are harvested, washed three times in LPS-free PBS, and brought to a density of 6×10^6/ml (B16BL6) or 20×10^6/ml (PG19, EL4 and LLC). 100 μl of the cell suspension is injected subcutaneously into shaven, right hind limbs of the mice. When the tumors reach a size of 50-70 mm^2, daily treatment is started with dexamethasone (DEX), hydrocortisone (HYDRO), compound A (CpdA) or its analogues (intraperitoneally (i.p.) or in drinking water). DEX, HYDRO are diluted in PBS; CpdA is diluted in 20% ethanol. The smaller and larger diameters of the tumor are measured daily with an electronic caliper. Tumor size index (TSI) is defined in mm^2 as (a)×(b), (a) being the longest diameter of the tumor and (b) the diameter perpendicular to (a). […] Each mouse receives daily either PBS or a specific dose of DEX, ranging from 5 μg to 200 μg. […]. […] Toxicity and efficacy of CpdA and analogues will be evaluated.

A short description of data set [6]: Serum ELISA of osteoclast and osteoblast markers in DBA/1 mice. To be noted: 62.5 μg daily, 8 day treatment; FIG. 21A. Background: ELISA stands for enzyme-linked immunosorbent assay.
Text: DBA/1 mice—Male 8- to 12-wk-old DBA/1 mice were purchased from Janvier and housed following institutional guidelines. All animal procedures were approved by the institutional animal care and ethics committee. […] The human IL-6 and IL-8 cytoset were purchased from BioSource International, Inc. For the detection of TRAP5b in DBA/1 mice serum we used the Mouse TRAP Assay, purchased from Immunodiagnostic systems limited. The osteocalcin EIA kit was purchased from Biomedical Technologies, Inc. All assays were performed according to the manufacturer's instructions.

`C[C@@H]1C[C@H]2[C@@H]3CCC4=CC(=O)C=C[C@]4(C)[C@@]3(F)[C@@H](O)C[C@]2(C)[C@@]1(O)C(=O)CO` [DEX, dexamethasone, reference compound]: the cytotoxicity at 100 µM in data set [1] was 10%; in data set [2] it was 30%. Besides, the cytotoxicity at 48 h in data set [3] came out at 30%. The “Levels of cyp1A1, FMO1, HMOX2, ATM, bcl2L1, casp1” value in data set [4] was “increases levels”. The “Mean weight of tumors” value in data set [5] worked out at 0.59 ± 0.04 g. In data set [6], the “TRAP5b in mouse serum” value is given as “increase of TRAP5b in mouse serum”.

These data come from US8039501B2, “Synephrine derivatives useful as anti-inflammatory agents” (Universiteit Gent, priority 2005, dated 2011).
